One assay relates to Panx-1. The following applies: cited from earlier work; for IC50: Panx-1 blockers, reference compounds.
Assay [1] deals with T1, Panx-1 channels (Mus musculus, UniProt Q9JIP4).
T1 construct: expressed in transfected cells; host or cells: Xenopus laevis oocytes injected with in vitro-transcribed mRNA
The experiment in a line: Voltage clamp on Xenopus laevis oocytes expressing Panx-1 channels. The format is cell-based. The following applies: Figure 4 dose-response plot; concentration not printed in the legend.

In assay [2] the target is T1, Panx-1 channels. The assay is described as above. The class given is cell-based. As to the method: All new products were screened as Panx-1 blockers at the dose of 50 µM using the Voltage Clamp technique on Xenopus Laevis oocytes expressing Panx-1 channels. The membrane potential of the cells was held at -60 mV and voltage steps to +60 mV were applied to induce membrane currents. To verify that Panx-1 channels carried the currents, in each experiment 100 µM carbenoxolone (CBX) was applied. At this concentration, CBX is known to yield 100% inhibition of Panx-1 activity. If present, leak currents resistant to CBX were subtracted from the total current to assess % inhibition mediated by the tested compounds. Table 1 and Table 2 report the electrophysiological results of naphthalene-2-sulphonic acid derivatives bearing at position 5 an amino- (3a–e, 4 and 5) or amide group (7a–g, 8 and 9) and of compound 13.
Oocytes of Xenopus laevis are prepared as previously described in [39] where the oocytes are isolated from surgically removed ovary segments incubated in an Oocyte Ringe solution Ca2-free (OR2: in mM: 82.5 NaCl, 2.5 KCl, 1.0 MgCl2, […], 1.0 Na2HPO4 e 5.0 HEPES, pH 7.5) with 2 mg/mL of collagenase and antibiotics (10,000 U/mL penicillin and 10 mg/mL of streptomycin) stirred at room temperature for 3 h. After being washed with OR2, oocytes free of follicular cells and that have a uniform pigmentation are chosen and stored in OR2 for 18 °C.
Mouse pannexin1, in pCS2, was linearised with NotI. In vitro transcription was performed with the polymerase SP6, using the Message Machine kit (Ambion). mRNA was quantified by absorbance (260 nm), and the proportion of full-length transcripts was checked by agarose gel electrophoresis. In vitro-transcribed mRNA (~20 nL) was injected into Xenopus laevis oocytes.
Whole-cell membrane currents of oocytes were measured using a two-electrode voltage clamp (Gene Clamp 500B, Axon Instruments/Molecular Devices Sunnyvale, Union City, CA, USA). Glass pipettes were pulled using a P-97 Flaming/Brown type puller (Sutter, Novato, CA, USA). The recording chamber was perfused continuously with frog Ringer (OR) solution (in mM: 82.5 NaCl, 2.5 KCl, 1 CaCl2, 1 MgCl2, 1 Na2HPO4, and 5 HEPES, pH 7.5).
Membrane conductance was determined using voltage pulses, and the pulse-induced current amplitudes were divided by the amplitudes of the voltage steps. For calculation of % inhibition, leak currents were subtracted. Typically, leak currents after the interventions were smaller than at the beginning of the experiment and this smaller value was used for the subtraction to avoid overestimation of the inhibitory effect. For an independent measure of the leak current, oocytes at the end of the experiment were exposed to 100 µM carbenoxolone, which is known to close Panx1 channels 100%. Oocytes expressing Panx1 were held at −60 mV, and pulses to +60 mV were applied to transiently open the channels by means of the voltage gate. Pulses 5 s in duration were applied at 0.1 Hz for current and conductance measurements.

The text below walks through data of PMC9103715, “New Panx-1 Blockers: Synthesis, Biological Evaluation and Molecular Dynamic Studies” (International Journal of Molecular Sciences, 2022).

The structures appear in SMILES notation.

T1 sequence (Q9JIP4 whole entry): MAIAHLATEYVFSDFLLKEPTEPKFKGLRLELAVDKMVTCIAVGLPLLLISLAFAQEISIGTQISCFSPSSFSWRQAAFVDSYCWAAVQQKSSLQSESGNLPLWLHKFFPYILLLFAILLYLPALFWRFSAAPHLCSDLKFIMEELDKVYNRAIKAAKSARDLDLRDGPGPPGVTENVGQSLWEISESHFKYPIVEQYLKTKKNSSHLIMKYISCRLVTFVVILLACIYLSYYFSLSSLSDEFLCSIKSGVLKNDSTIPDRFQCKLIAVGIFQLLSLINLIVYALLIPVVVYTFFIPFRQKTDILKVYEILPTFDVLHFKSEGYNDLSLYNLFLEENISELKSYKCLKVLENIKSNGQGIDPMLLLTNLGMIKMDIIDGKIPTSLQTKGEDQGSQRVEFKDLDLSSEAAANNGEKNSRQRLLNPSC

One may read the IC50 as the concentration that gives 50% inhibition. As for `CCN(Cc1cccc(S(=O)(=O)O)c1)c1ccc(C(=C2C=CC(=[N+](CC)Cc3cccc(S(=O)(=O)O)c3)C=C2)c2ccccc2S(=O)(=O)[O-])cc1` [Brilliant Blue FCF], the IC50 in the assay on Panx-1 was 0.27 µM.

Regarding `CC1(C)[C@@H](OC(=O)CCC(=O)O)CC[C@]2(C)[C@H]3C(=O)C=C4[C@@H]5C[C@@](C)(C(=O)O)CC[C@]5(C)CC[C@@]4(C)[C@]3(C)CC[C@@H]12` [Carbenoxolone, carbenoxolone], in the assay with Panx-1 (100 µM carbenoxolone), the “inhibition of Panx-1 activity” value is on record as 100%. Moreover, in the assay on Panx-1, the concentration for half-maximal inhibition (IC50) is 10 µM. Besides, the “% inhibition of Panx1-mediated membrane currents” value at Panx-1 channels [1] stood at 100%.

On to `O=C(O)c1cc([N+](=O)[O-])ccc1NCCCc1ccccc1` [NPPB, 5-nitro-2-(3-phenylpropylamino)benzoic acid], for which the half-inhibitory concentration (IC50) in the assay on Panx-1 is 50 µM.

What is called inhibition is the percentage by which the read-out fell short of the control. Consider `CCCN(CCC)S(=O)(=O)c1ccc(C(=O)O)cc1` [Probenecid, reference compound], for which, at Panx-1 channels [2] (50 µM, voltage clamp, Xenopus laevis oocytes expressing Panx-1 channels, read-out: I (%) inhibition of Panx-1 currents), the inhibition at 50 µM worked out at 29%. The “classification as active or inactive Panx-1 blocker” value on Panx-1 channels [2] (grouping chosen for the virtual screening) was “inactive”. For the same molecule, the IC50 with Panx-1 was 150 µM.
